Reference: patent US8975078B2, “Method for expressing a mouse olfactory receptor Olfr15 on a cell membrane” (Panasonic Corporation, priority 2011, dated 2015)

Legend:
[1] = test system: mouse olfactory receptor Olfr15; assay: Expression rate of mouse olfactory receptor Olfr15 on the cell membrane of transfected HEK293T cells (immunofluorescence); format: cell-based
HEK293T cells = assay: Cell viability rate of transfected HEK293T cells at the time of immunofluorescence; format: cell-based
Experimental: The liquid culture medium containing HEK293T cells was added into a Petri dish. The HEK293T cells adhered spontaneously to the inner wall of the Petri dish.
The plasmid (RTP1S), the plasmid (Rho-myc-Olfr15), and a plasmid (purchased from Evrogen, trade name: pMkate2) coding for a membrane marker were added to the Petri dish, and the HEK293T cells were transfected with these three plasmids by a lipofection method. The liquid culture medium was maintained under an air atmosphere containing 5% CO2 under a temperature of 37 degrees Celsius. In this way, as shown in the uppermost part of FIG. 4, the vessel containing the transformed HEK293 cells and the liquid culture medium was prepared.
Twenty four hours after the transfection, a liquid culture medium containing chlorpromazine was added into the vessel. […]
Subsequently, the liquid culture medium was removed. Then, the liquid culture medium not containing chlorpromazine (see FIG. 2) was added to the vessel. Thus, the liquid culture medium was exchanged.
Four hours after the exchange of the liquid culture medium, the distribution of the mouse olfactory receptor Olfr15 on the cell membrane was evaluated in accordance with the immunofluorescence technique disclosed in Non Patent Literature 2. For example, the expression rate on the cell membrane and the cell viability rate were calculated in accordance with the following formulas. (Expression rate on the cell membrane)=(fluorescence intensity on the cell membrane)/(fluorescence intensity of one entire cell) (Cell viability rate)=(the number of the living cells when the immunofluorescence technique was performed)/(the number of all the cells when the immunofluorescence technique was performed)
For example, the expression rate and the cell viability rate of not less than ten cells were calculated. Then, each of the average value of these rates was calculated. “Expression rate on the cell membrane” and “Cell viability rate” described in Table 3 are the average rates thereof.

[2] = chlorpromazine 5 μg/ml, immersion time 0.5 hour
[3] = chlorpromazine 5 μg/ml, immersion time 1 hour
[4] = chlorpromazine 5 μg/ml, immersion time 2 hour
[5] = chlorpromazine 5 μg/ml, immersion time 4 hour
[6] = chlorpromazine 5 μg/ml, immersion time 9 hour
[7] = chlorpromazine 5 μg/ml, immersion time 20 hour
[8] = chlorpromazine 10 μg/ml, immersion time 0.5 hour
[9] = chlorpromazine 10 μg/ml, immersion time 1 hour
[10] = chlorpromazine 10 μg/ml, immersion time 2 hour
[11] = chlorpromazine 10 μg/ml, immersion time 4 hour
[12] = chlorpromazine 10 μg/ml, immersion time 9 hour
[13] = chlorpromazine 10 μg/ml, immersion time 20 hour
[14] = chlorpromazine 25 μg/ml, immersion time 0.5 hour
[15] = chlorpromazine 25 μg/ml, immersion time 1 hour
[16] = chlorpromazine 25 μg/ml, immersion time 2 hour

For CN(C)CCCN1c2ccccc2Sc2ccc(Cl)cc21 [chlorpromazine], the “Expression rate on the cell membrane (%)” value ([1]; Comparative Example 2: as Example 1 (chlorpromazine 25 μg/ml, 20 hour) but plasmid (RTP1S) not used) was 9.7%, the “Expression rate on the cell membrane (%)” value [1, 2] was 11.8% and the “Expression rate on the cell membrane (%)” value [1, 3] was 8.1%. For the same molecule, the “Expression rate on the cell membrane (%)” value [1, 4] was 12.3%, the “Expression rate on the cell membrane (%)” value [1, 5] was 8.5% and the “Expression rate on the cell membrane (%)” value [1, 6] was 11.5%. The “Expression rate on the cell membrane (%)” value [1, 7] was 14.1%, the “Expression rate on the cell membrane (%)” value [1, 8] was 9.6% and the “Expression rate on the cell membrane (%)” value [1, 9] was 9.9%. For the same molecule, the “Expression rate on the cell membrane (%)” value [1, 10] was 19.7%, the “Expression rate on the cell membrane (%)” value [1, 11] was 16.7% and the “Expression rate on the cell membrane (%)” value [1, 12] was 17.4%. The “Expression rate on the cell membrane (%)” value [1, 13] was 19.2%, the “Expression rate on the cell membrane (%)” value [1, 14] was 15.1% and the “Expression rate on the cell membrane (%)” value [1, 15] was 29.5%. For the same molecule, the “Expression rate on the cell membrane (%)” value [1, 16] was 24.0%, the “Expression rate on the cell membrane (%)” value ([1]; chlorpromazine 25 μg/ml, immersion time 20 hour, HEK293T with RTP1S and Rho-myc-Olfr15 plasmids, 4 h after medium exchange) was 28.4% and the “expression rate of the olfactory receptor Olfr15 on the cell membrane (change when added)” value ([1]; statement on Table 3, versus medium without chlorpromazine) was “increases”. The “Cell viability rate (%)” value (HEK293T cells; [2]) was 81%, the “Cell viability rate (%)” value (HEK293T cells; [3]) was 88% and the “Cell viability rate (%)” value (HEK293T cells; [4]) was 89%. The “Cell viability rate (%)” value (HEK293T cells; [5]) was 82%, the “Cell viability rate (%)” value (HEK293T cells; [6]) was 79% and the “Cell viability rate (%)” value (HEK293T cells; [7]) was 68%. The “Cell viability rate (%)” value (HEK293T cells; [8]) was 89%, the “Cell viability rate (%)” value (HEK293T cells; [9]) was 82% and the “Cell viability rate (%)” value (HEK293T cells; [10]) was 84%. For the same molecule, the “Cell viability rate (%)” value (HEK293T cells; [11]) was 81%, the “Cell viability rate (%)” value (HEK293T cells; [12]) was 41% and the “Cell viability rate (%)” value (HEK293T cells; [13]) was 50%. For the same molecule, the “Cell viability rate (%)” value (HEK293T cells; [14]) was 89%, the “Cell viability rate (%)” value (HEK293T cells; [15]) was 55% and the “Cell viability rate (%)” value (HEK293T cells; [16]) was 41%. The “Cell viability rate (%)” value (HEK293T cells; chlorpromazine 25 μg/ml, immersion time 20 hour) was 11%.

OC[C@H]1O[C@@](CO)(O[C@H]2O[C@H](CO)[C@@H](O)[C@H](O)[C@H]2O)[C@@H](O)[C@@H]1O [sucrose] was tested, and the “Expression rate on the cell membrane (%)” value ([1]; Comparative Example 4: sucrose 250 mM instead of chlorpromazine, otherwise as Example 1) was 12.5%.
